Data taken from patent US8513234B2, “HIV integrase inhibitors” (Merck Sharp & Dohme Corp., priority 2008, dated 2013).
Read-outs that look alike come from different tables or passages of the source.

Key:
[1] = system: HIV-1; assay: Inhibition of acute HIV-1 infection of T-lymphoid cells (spread assay); type: cell-based
Procedure: Assay for Inhibition of HIV-1 Replication
Assays for the inhibition of acute HIV-1 infection of T-lymphoid cells were conducted in accordance with Vacca, J. P. et al, Proc. Natl. Acad. Sci. USA 1994, 91: 4096.

[2] = system: wild type IIIB; assay: Single cycle infectivity assay in HeLa P4-2 cells, wild type virus; type: cell-based, HIV; conditions: single cycle infectivity, wild type IIIB, read-out: wild type IIIB IC50
[3] = system: virus containing N155H mutation in the integrase gene; conditions: k = IC50(mutant)/IC50(wild type)
Procedure: (§1) An assay for measuring the inhibition of acute HIV infection with HeLa P4-2 cells in a single cycle infectivity assay was conducted using methods described in Joyce et al., J. Biol. Chem. 2002, 277: 45811, Hazuda et al., Science 2000, 287: 646, and Kimpton et al, J. Virol. 1992, 66: 2232. Proviral plasmids encoding viruses containing specific mutations in the integrase gene (N155H, Q148R, Y143R, E92Q, or G140S/Q148H) were generated by site-directed mutagenesis, and viruses were produced by transfecting 293T cells with the appropriate proviral plasmids.

[4] = system: virus containing Q148R mutation in the integrase gene; conditions: k = IC50(mutant)/IC50(wild type)
Procedure: as §1

[5] = system: virus containing Y143R mutation in the integrase gene; conditions: k = IC50(mutant)/IC50(wild type)
Procedure: as §1

[6] = system: virus containing G140S/Q148H mutation in the integrase gene; conditions: k = IC50(mutant)/IC50(wild type)
Procedure: as §1

[7] = molecular target: T1, recombinant integrase (HIV-1 integrase) (Human immunodeficiency virus type 1 group M subtype B, UniProt P04585); assay: HIV-1 integrase assay: strand transfer catalyzed by recombinant integrase; type: biochemical; conditions: strand transfer activity
T1 construct: Assays for the strand transfer activity of integrase were conducted in accordance with WO 02/30930 for recombinant integrase
Procedure: HIV-1 Integrase Assay: Strand Transfer Catalyzed by Recombinant Integrase
Assays for the strand transfer activity of integrase were conducted in accordance with WO 02/30930 for recombinant integrase. […] For example, the compounds prepared in Examples 1 to 5 were tested in the integrase assay and found to have the IC50 values in Table B. (Compounds 6A and 6B were not tested in this assay.)
Further description on conducting the assay using preassembled complexes is found in Wolfe, A. L. et al., J. Virol. 1996, 70: 1424-1432, Hazuda et al., J. Virol. 1997, 71: 7005-7011; Hazuda et al., Drug Design and Discovery 1997, 15: 17-24; and Hazuda et al., Science 2000, 287: 646-650.

[8] = Human immunodeficiency virus 1, IIIB, HeLaP4-2, HeLa P4-2 cells

SMILES	IC95 (nM) in the presence of 10% FBS [1] [nM]	IC50 [2, 8] [nM]	Number of fold shift in IC50 versus wild type IIIB, N155H [3]	Number of fold shift in IC50 versus wild type IIIB, Q148R [4]	Number of fold shift in IC50 versus wild type IIIB, Y143R [5]	Number of fold shift in IC50 versus wild type IIIB, G140S/Q148H [6]	IC50 ([7]; IC50 (nM)) [nM]	IC50 ([7]; read-out: IC50) [nM]	IC50 ([2]; HeLa P4-2 cells) [nM]
CO[C@@]1(C)CC[C@H](N(C)C(=O)C(=O)N(C)C)c2nc(C(=O)NCc3ccc(F)c(C)c3)c(O)c(=O)n2C1 [Compound 2B, N-((7S,10S)-2-{[(4-fluoro-3-methylbenzyl)amino]carbonyl}-3-hydroxy-7-methoxy-7-methyl-4-oxo-4,6,7,8,9,10-hexahydropyrimido[1,2-a]azepin-10-yl)-N,N′,N′-trimethylethanediamide]	9	8	24	24	3	190	41	–	–
Cc1cc(CNC(=O)c2nc3n(c(=O)c2O)[C@@H](C)COC[C@@H]3N(C)C(=O)C(=O)N(C)C)ccc1F [Compound 4B, N-((6S,10R)-2-{[(4-fluoro-3-methylbenzyl)amino]carbonyl}-3-hydroxy-6-methyl-4-oxo-6,7,9,10-tetrahydro-4H-pyrimido[1,2-d][1,4]oxazepin-10-yl)-N,N′,N′-trimethylethanediamide]	7	32	2	3	2	20	–	39	–
CC[C@@H]1COC[C@@H](N(C)C(=O)C(=O)N(C)C)c2nc(C(=O)NCc3ccc(F)cc3)c(O)c(=O)n21 [Compound 5D, N-((6R,10S)-6-ethyl-2-{[(4-fluorobenzyl)amino]carbonyl}-3-hydroxy-4-oxo-6,7,9,10-tetrahydro-4H-pyrimido[1,2-d][1,4]oxazepin-10-yl)-N N′ N′-trimethylethanediamide]	20	26	13	14	1	18	–	42	–
Cc1cc(CNC(=O)c2nc3n(c(=O)c2O)[C@H](C)COC[C@H]3N(C)C(=O)C(=O)N(C)C)ccc1F [Compound 4D, N-((6R,10S)-2-{[(4-fluoro-3-methylbenzyl)amino]carbonyl}-3-hydroxy-6-methyl-4-oxo-6,7,9,10-tetrahydro-4H-pyrimido[1,2-d][1,4]oxazepin-10-yl)-N,N′,N′-trimethylethanediamide]	6	20	8	9	2	72	–	36	–
COC1(C)CCC(N(C)C(=O)C(=O)N(C)C)c2nc(C(=O)NCc3ccc(F)c(C)c3)c(O)c(=O)n2C1 (single isomer, unassigned) [Compound 2D, N-(2-{[(4-fluoro-3-methylbenzyl)amino]carbonyl}-3-hydroxy-7-methoxy-7-methyl-4-oxo-4,6,7,8,9,10-hexahydropyrimido[1,2-a]azepin-10-yl)-N,N′,N′-trimethylethanediamide]	14	–	2	1	2	4	46	–	23
Cc1ccc(CNC(=O)c2nc3n(c(=O)c2O)[C@H](C)CCC[C@H]3N(C)C(=O)C(=O)N(C)C)cc1F (racemic) [Compound 3A, Racemic-trans-N-(2-{[(3-fluoro-4-methylbenzyl)amino]carbonyl}-3-hydroxy-6-methyl-4-oxo-4,6,7,8,9,10-hexahydropyrimido[1,2-a]azepin-10-yl)-N,N′,N′-trimethylethanediamide]	18	31	1	1	–	4	–	40	–
COC1(C)CCC(N(C)C(=O)C(=O)N(C)C)c2nc(C(=O)NCc3ccc(F)c(C)c3)c(O)c(=O)n2C1 (single isomer, unassigned) [Compound 2C, N-(2-{[(4-fluoro-3-methylbenzyl)amino]carbonyl}-3-hydroxy-7-methoxy-7-methyl-4-oxo-4,6,7,8,9,10-hexahydropyrimido[1,2-a]azepin-10-yl)-N,N′,N′-trimethylethanediamide]	9	–	19	22	3	68	73	–	8
Cc1cc(CNC(=O)c2nc3n(c(=O)c2O)CC(C)(C)CC[C@@H]3N(C)C(=O)C(=O)N(C)C)ccc1F [Compound 1B, N-((10S)-2-{[(4-fluoro-3-methylbenzyl)amino]carbonyl}-3-hydroxy-7,7-dimethyl-4-oxo-4,6,7,8,9,10-hexahydropyrimido[1,2-a]azepin-10-yl)-N,N′,N′-trimethylethanediamide]	10	13	14	12	1	34	–	38	–
CCN(C(=O)C(=O)N(C)C)[C@H]1CC[C@H](OC)Cn2c1nc(C(=O)NCc1ccc(F)cc1)c(O)c2=O [Compound 6B, N-ethyl-N-((7S,10S)-2-{[(4-fluorobenzyl)amino]carbonyl}-3-hydroxy-7-methoxy-4-oxo-4,6,7,8,9,10-hexahydropyrimido[1,2-a]azepin-10-yl)-N,N-dimethylethanediamide]	14	13	13	>100	>100	>100	–	–	–
Cc1cc(CNC(=O)c2nc3n(c(=O)c2O)CC(C)(C)CC[C@H]3N(C)C(=O)C(=O)N(C)C)ccc1F [Compound 1A, N-((10R)-2-{[(4-fluoro-3-methylbenzyl)amino]carbonyl}-3-hydroxy-7,7-dimethyl-4-oxo-4,6,7,8,9,10-hexahydropyrimido[1,2-a]azepin-10-yl)-N,N′,N′-trimethylethanediamide]	12	41	1	2	1	9	–	42	–
CN(C)C(=O)C(=O)N(C)C1COCCn2c1nc(C(=O)NCc1ccc(F)cc1)c(O)c2=O (single isomer, unassigned; (-)) [Compound W, (−)N-(2-{[(4-fluorobenzyl)amino]carbonyl}-3-hydroxy-4-oxo-6,7,9,10-tetrahydro-4h-pyrimido[1,2-d][1,4]oxazepin-10-yl)-N,N′,N′-trimethylethanediamide, reference compound]	–	–	29	67	3	>73	–	–	26
CN(C)C(=O)C(=O)N(C)C1COCCn2c1nc(C(=O)NCc1ccc(F)cc1)c(O)c2=O (single isomer, unassigned; (+)) [Compound V, (+)N-(2-{[(4-fluorobenzyl)amino]carbonyl}-3-hydroxy-4-oxo-6,7,9,10-tetrahydro-4h-pyrimido[1,2-d][1,4]oxazepin-10-yl)-N,N′,N′-trimethylethanediamide, reference compound]	–	37	10	13	1	>32	–	–	–
